One molecule from patent publication US9820937B2, “Pharmaceutical composition formulated for pre-gastric absorption of monoamine oxidase B inhibitors” (R.P. Scherer Technologies, LLC, priority 1997, dated 2017) can be followed below.

This assay has as its target T1, MAO-B (Homo sapiens, UniProt P27338).
T1 construct: from tissue; host or cells: whole body of living study subjects (in vivo); no isolated enzyme
T1 sequence (P27338 1-520): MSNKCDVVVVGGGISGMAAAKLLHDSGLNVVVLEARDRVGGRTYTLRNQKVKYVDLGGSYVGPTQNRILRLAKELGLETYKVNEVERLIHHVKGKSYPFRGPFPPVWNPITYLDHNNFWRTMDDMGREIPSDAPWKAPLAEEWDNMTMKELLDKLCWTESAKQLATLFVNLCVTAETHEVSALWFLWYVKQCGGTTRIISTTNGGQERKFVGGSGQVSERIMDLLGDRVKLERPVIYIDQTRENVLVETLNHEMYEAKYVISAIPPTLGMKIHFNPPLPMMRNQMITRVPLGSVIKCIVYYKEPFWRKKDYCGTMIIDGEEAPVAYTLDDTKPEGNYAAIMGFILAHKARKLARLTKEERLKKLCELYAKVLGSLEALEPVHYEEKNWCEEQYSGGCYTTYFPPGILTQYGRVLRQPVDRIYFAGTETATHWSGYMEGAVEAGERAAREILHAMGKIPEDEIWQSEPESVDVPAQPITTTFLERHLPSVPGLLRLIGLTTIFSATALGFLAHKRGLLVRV
It is filed as in vivo. To be noted: four pharmacokinetic studies.

`C#CCN[C@H](C)Cc1ccccc1` [N-desmethylselegiline]: the “correlation of Log 10 plasma AUC with 24 hour cumulative urinary excretion of phenethylamine” value is “no significant correlation”.
